Read-outs that look alike come from different tables or passages of the source.
Assays:
HCV NS5B = molecular target: T1, HCV NS5B (Hepatitis C virus genotype 1b, UniProt Q9WMX2); experiment: Modified HCV NS5B RdRp enzyme assay (preincubation protocol); type: biochemical
T1 construct: The protein was expressed with an 18 amino acid C-terminal truncation to enhance the solubility; made in house; host or cells: E. coli BL21(DE3)
Experimental: HCV NS5B RdRp cloning, expression, and purification. The cDNA encoding the NS5B protein of HCV, genotype 1b, was cloned into the pET21a expression vector. The protein was expressed with an 18 amino acid C-terminal truncation to enhance the solubility. The E. coli competent cell line BL21(DE3) was used for expression of the protein. Cultures were grown at 37° C. for ˜4 hours until the cultures reached an optical density of 2.0 at 600 nm. The cultures were cooled to 20° C. and induced with 1 mM IPTG. Fresh ampicillin was added to a final concentration of 50 μg/ml and the cells were grown overnight at 20° C.
Cell pellets (3 L) were lysed for purification to yield 15-24 mgs of purified NS5B. The lysis buffer consisted of 20 mM Tris-HCl, pH 7.4, 500 mM NaCl, 0.5% triton X-100, 1 mM DTT, 1 mM EDTA, 20% glycerol, 0.5 mg/ml lysozyme, 10 mM MgCl2, 15 ug/ml deoxyribonuclease I, and Complete TM protease inhibitor tablets (Roche). After addition of the lysis buffer, frozen cell pellets were resuspended using a tissue homogenizer. To reduce the viscosity of the sample, aliquots of the lysate were sonicated on ice using a microtip attached to a Branson sonicator. The sonicated lysate was centrifuged at 100,000×g for 1 hr at 4° C. and filtered through a 0.2 μm filter unit (Corning).
The protein was purified using three sequential chromatography steps: Heparin sepharose CL-6B, polyU sepharose 4B, and Hitrap SP sepharose (Pharmacia). The chromatography buffers were identical to the lysis buffer but contained no lysozyme, deoxyribonuclease I, MgCl2 or protease inhibitor and the NaCl concentration of the buffer was adjusted according to the requirements for charging the protein onto the column. Each column was eluted with a NaCl gradient which varied in length from 5-50 column volumes depending on the column type. After the final chromatography step, the resulting purity of the enzyme is >90% based on SDS-PAGE analysis. The enzyme was aliquoted and stored at −80° C.
Standard HCV NS5B RdRp enzyme assay. HCV RdRp genotype 1b assays were run in a final volume of 60 μl in 96 well plates (Costar 3912). The assay buffer is composed of 20 mM Hepes, pH 7.5, 2.5 mM KCl, 2.5 mM MgCl2, 1 mM DTT, 1.6 U RNAse inhibitor (Promega N2515), 0.1 mg/ml BSA (Promega R3961), and 2% glycerol. All compounds were serially diluted (3-fold) in DMSO and diluted further in water such that the final concentration of DMSO in the assay was 2%. HCV RdRp genotype 1b enzyme was used at a final concentration of 28 nM. A polyA template was used at 6 nM, and a biotinylated oligo-dT12 primer was used at 180 nM final concentration. Template was obtained commercially (Amersham 27-4110). Biotinylated primer was prepared by Sigma Genosys. 3H-UTP was used at 0.6 μCi (0.29 μM total UTP). Reactions were initiated by the addition of enzyme, incubated at 30° C. for 60 min, and stopped by adding 25 μl of 50 mM EDTA containing SPA beads (4 μg/μl, Amersham RPNQ 0007). Plates were read on a Packard Top Count NXT after >1 hr incubation at room temperature.
Modified HCV NS5B RdRp enzyme assay. A modified enzyme assay was performed essentially as described for the standard enzyme assay except for the following: The biotinylated oligo dT12 primer was precaptured on streptavidin-coated SPA beads by mixing primer and beads in assay buffer and incubating at room temperature for one hour. Unbound primer was removed after centrifugation. The primer-bound beads were resuspended in 20 mM Hepes buffer, pH 7.5 and used in the assay at final concentrations of 20 nM primer and 0.67 μg/μl beads. Order of addition in the assay: enzyme (14 nM) was added to diluted compound followed by the addition of a mixture of template (0.2 nM), 3H-UTP (0.6 μCi, 0.29 μM), and primer-bound beads, to initiate the reaction; concentrations given are final. Reactions were allowed to proceed for 4 hours at 30° C.
IC50 values for compounds were determined using seven different [I]. […]

HCV replicon cells = experiment: HCV replicon FRET assay; type: cell-based; settings: Hepatitis C virus
Source text: FRET Assay Preparation. To perform the HCV FRET screening assay, 96-well cell culture plates were used. The FRET peptide (Anaspec, Inc.) (Taliani et al., Anal. Biochem. 1996, 240, 60-67) contains a fluorescence donor, EDANS, near one end of the peptide and an acceptor, DABCYL, near the other end. The fluorescence of the peptide is quenched by […] resonance energy transfer (RET) between the donor and the acceptor, but as the NS3 protease cleaves the peptide the products are released from RET quenching and the fluorescence of the donor becomes apparent. The assay reagent was made as follows: 5X cell Luciferase cell culture lysis reagent from Promega (#E153A) diluted to 1× with dH2O, NaCl added to 150 mM final, the FRET peptide diluted to 20 μM final from a 2 mM stock.
To prepare plates, HCV replicon cells, with or without a Renilla luciferase reporter gene, were trypsinized and placed into each well of a 96-well plate with titrated test compounds added in columns 3 through 12; columns 1 and 2 contained a control compound (HCV protease inhibitor), and the bottom row contained cells without compound. The plates were then placed in a CO2 incubator at 37° C.
Assays. Subsequent to addition of the test compounds described above (FRET Assay Preparation), at various times the plate was removed and Alamar blue solution (Trek Diagnostics, #00-100) was added per well as a measure of cellular toxicity. After reading in a Cytoflour 4000 instrument (PE Biosystems), plates were rinsed with PBS and then used for FRET assay by the addition of 30 ul of the FRET peptide assay reagent described above (FRET Assay Preparation) per well. The plate was then placed into the Cytoflour 4000 instrument which had been set to 340 excite/490 emission, automatic mode for 20 cycles and the plate read in a kinetic mode. Typically, the signal to noise using an endpoint analysis after the reads was at least three-fold. Alternatively, after Alamar blue reading, plates were rinsed with PBS, 50 ul of DMEM (high glucose) without phenol red was added and plates were then used for luciferase assay using the Promega Dual-Glo Luciferase Assay System.
Compound analysis was determined by quantification of the relative HCV replicon inhibition and the relative cytotoxicity values. To calculate cytoxicity values, the average Alamar Blue fluorescence signals from the control wells were set as 100% non-toxic. The individual signals in each of the compound test wells were then divided by the average control signal and multiplied by 100% to determine […]. To calculate the HCV replicon inhibition values, an average background value was obtained from the two wells containing the highest amount of HCV protease inhibitor at the end of the assay period. These numbers were similar to those obtained from naïve Huh-7 cells.
The background numbers were then subtracted from the average signal obtained from the control wells and this number was used as 100% activity. The individual signals in each of the compound test wells were then divided by the averaged control values after background subtraction and multiplied by 100% to determine percent activity. EC50 values for a protease inhibitor titration were calculated as the concentration which caused a 50% reduction in FRET or luciferase activity. The two numbers generated for the compound plate, percent cytoxicity and percent activity were used to determine compounds of interest for further analysis.

[1] = determined using the preincubation protocol, read-out: IC50
[2] = determined using the FRET assay, read-out: EC50

T1 sequence (Q9WMX2 2420-2992): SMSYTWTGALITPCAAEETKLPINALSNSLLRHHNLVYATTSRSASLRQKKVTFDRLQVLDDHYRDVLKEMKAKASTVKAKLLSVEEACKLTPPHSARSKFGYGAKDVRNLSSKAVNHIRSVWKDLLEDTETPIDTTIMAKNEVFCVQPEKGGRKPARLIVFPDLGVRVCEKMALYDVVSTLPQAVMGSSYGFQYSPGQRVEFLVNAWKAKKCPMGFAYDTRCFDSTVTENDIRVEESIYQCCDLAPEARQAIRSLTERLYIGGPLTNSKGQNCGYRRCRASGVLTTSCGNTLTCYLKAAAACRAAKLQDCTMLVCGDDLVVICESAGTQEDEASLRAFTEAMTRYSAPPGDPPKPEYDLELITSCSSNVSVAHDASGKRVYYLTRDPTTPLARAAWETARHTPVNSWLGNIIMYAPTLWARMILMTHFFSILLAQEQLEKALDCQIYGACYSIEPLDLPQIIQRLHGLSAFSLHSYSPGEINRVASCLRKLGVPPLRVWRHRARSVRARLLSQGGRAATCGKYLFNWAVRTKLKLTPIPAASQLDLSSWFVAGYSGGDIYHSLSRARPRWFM

Row | SMILES | IC50 (HCV NS5B; [1]) [nM] | EC50 (HCV replicon cells; [2]) [nM] | IC50 (HCV NS5B) [nM] | EC50 (HCV replicon cells) [nM]
1 | COc1ccc2c(c1)C1CC1(CO)Cn1c-2c(C2CCCCC2)c2ccc(C(=O)NS(=O)(=O)N(C)C)cc21 (centres unmarked) | 1 to 500 | 1 to 500 | – | –
2 | COc1ccc2c(c1)C1CC1(COC(=O)N1CCOCC1)Cn1c-2c(C2CCCCC2)c2ccc(C(=O)NS(=O)(=O)N(C)C)cc21 (centres unmarked) | 1 to 500 | 1 to 500 | – | –
3 | CCN(CC12CC1c1cc(OC)ccc1-c1c(C3CCCCC3)c3ccc(C(=O)NS(=O)(=O)N(C)C)cc3n1C2)C(C)=O (centres unmarked) | 1 to 500 | 1 to 500 | – | –
4 | COc1ccc2c(c1)C1CC1(CN1CCOCC1)Cn1c-2c(C2CCCCC2)c2ccc(C(=O)NS(=O)(=O)N(C)C)cc21 (centres unmarked) | 1 to 500 | 1 to 500 | – | –
5 | COc1ccc2c(c1)C1CC1(CC(=O)N1C3CCC1CN(C)C3)Cn1c-2c(C2CCCCC2)c2ccc(C(=O)NS(=O)(=O)N(C)C)cc21 (centres unmarked) | – | – | > 120 | 1 to 500
6 | COc1ccc2c(c1)C1CC1(CC(=O)N1C[C@@H](C)O[C@H](C)C1)Cn1c-2c(C2CCCCC2)c2ccc(C(=O)NS(=O)(=O)N(C)C)cc21 (some centres unmarked) | 1 to 500 | 1 to 500 | – | –
7 | COc1ccc2c(c1)C1CC1(CC(=O)N1CCOCC1)Cn1c-2c(C2CCCCC2)c2ccc(C(=O)NS(=O)(=O)N(C)C)cc21 (centres unmarked) | 1 to 500 | 1 to 500 | – | –
8 | COC(=O)CC12CC1c1cc(OC)ccc1-c1c(C3CCCCC3)c3ccc(C(=O)NS(=O)(=O)N(C)C)cc3n1C2 (centres unmarked) | 1 to 500 | > 120 | – | –
9 | COc1ccc2c(c1)C1CC1(CC(=O)O)Cn1c-2c(C2CCCCC2)c2ccc(C(=O)NS(=O)(=O)N(C)C)cc21 (centres unmarked) | 1 to 500 | 500 to 1000 | – | –
10 | COC(=O)CC12CC1c1cc(OC)ccc1-c1c(C3CCCCC3)c3ccc(C(=O)O)cc3n1C2 (centres unmarked) | 1 to 500 | 1 to 500 | – | –
